The subject of experiment [1] is human platelets (platelet rich plasma), ADP-induced aggregation. Kind of experiment: In vitro test for inhibition of human platelet aggregation induced by ADP. Type of experiment: cell-based. The conditions noted are these: Platelet. The text has this:
I.a. In vitro Test for Inhibition of Human Platelet Aggregation Induced by ADP
Addition of adenosine diphosphate (ADP) to human platelet rich plasma (PRP) in vitro induces platelet aggregation. This aggregation can be assessed by measuring the optical density (OD) of the PRP. The in vitro test described here was used to determine the inhibitory activity of a test compound on the ADP-induced aggregation of human platelets. A micro plate reader is used to measure the activity of several compounds simultaneously.
(§1) An alternative vehicle is 0.9% NaCl in MQ H2O. The compound solution (either in MQ H2O or 0.9% NaCl in MQ H2O) is further diluted in 0.9% NaCl in MQ H2O.
Free-flowing blood (at least 100 mL) is taken from a healthy volunteer and collected in 0.1 volume 3.8% sodium citrate. 2H2O in distilled H2O (w/v). The final concentration is 0.38% sodium citrate.
The citrated blood is centrifuged at 1,600 N/kg (160 g) at RT. After 15 min, centrifugation is discontinued with the brake turned off and the supernatant (=PRP) is collected. • 2. ADP (Kordia/Chrono-par # 384). Before use, a solution of 50 μM in 0.9% NaCl is prepared. Equipment • 1. Sysmex blood cell counter model KX-21. • 2. Labsystems iEMS reader MF with a 620 nm filter, an orbital shaker set at 1,000 rpm and a constant temperature of 37° C. Absorption is measured with the Labsystems iEMS program. • 3. Blood collection system 600 mL with needle, art P4203 (NPBI). • 4. 96 wells flat bottom micro plates (Greiner Labortechnik). Procedure
The platelets in the supernatant (PRP) are counted using a Sysmex blood cell counter and the supernatant is diluted with PPP to obtain a PRP containing 400,000±50,000 plt/μL. PRP should stabilize at RT for at least 20 min but not longer than 3 h.
150 μL PRP is pipetted into a well of the micro plate. 30 μL test compound in a range of concentrations (7 concentrations per compound) or vehicle is added and the micro plate is placed in the Labsystems iEMS reader MF at 37° C. The optical density (OD620) is then measured at 620 nm. After shaking for 2 min in the reader (1,000 rpm), the OD is measured for the second time. This is to verify the stability of the platelets (absence of spontaneous platelet aggregation). Then, 20 μL of 50 μM ADP solution is added and the OD is kinetically measured every min for 14 min at 620 nm (FIG. 1). Between two measurements, the plate is shaking for 40 seconds at 1,000 rpm. Each test compound is investigated in at least 2 experiments using PRP from different volunteers.
The mean OD at each compound concentration (including vehicle) is calculated at t=0 min and t=10 min. The percentage inhibition at each concentration is calculated using the formula: […]
The IC50 of the test compound is the concentration of the test compound at which the ADP-induced platelet aggregation is reduced by 50%. For this, the percentage inhibition values are plotted against compound concentration. Then, IC50, nH (Hill slope) and efficacy of the test compound is calculated using Graphpad Prism 3.0 (with variable slope).
Reference: Salmon, D. M. (1996) Thrombosis Research 84, 213-216.

Experiment [2] deals with washed human platelets, TRAP-induced aggregation. Kind of experiment: In vitro test for inhibition of human platelet aggregation induced by TRAP. Format: cell-based. The conditions noted are these: Platelet.
From the text: I.b. In vitro Test for Inhibition of Human Platelet Aggregation Induced by TRAP
Introduction: Addition of trombin receptor agonist peptide (TRAP) to washed human platelets (WPL) in vitro induces platelet aggregation. This aggregation can be determined by measuring the optical density of the WPL. The in vitro test described here is used to analyze the activity of a test compound to inhibit TRAP-induced aggregation of human platelets. A micro plate reader is used to measure the activity of several compounds simultaneously.
as §1
Free-flowing blood (at least 100 mL) is taken from a healthy volunteer and collected in 0.1 volume 3.8% sodium citrate. 2H2O in MQ H2O (w/v). The final concentration is 0.38% sodium citrate. The citrated blood is centrifuged at 1,600 N/kg (160 g) in Hettich Rotanta/AP centrifuge (750 rpm) at RT. After 15 min, centrifugation is discontinued with the brake turned off and the supernatant (=PRP) is collected. • 2. Washed platelets (WPL):
After adding freshly made 1 μL PGI2 solution per ml PRP, the suspension is centrifuged at 13,500 N/kg (1,350 g) for 10 min in a Hettich Rotanta/AP centrifuge (i.e., 2,800 rpm) at RT. After gentle resuspension of the pellet in the same volume of fresh Watson buffer containing 5 ng/mL PGI2, the suspension is centrifuged at 1,350 g (2,800 rpm) for 10 min at RT again. The final platelet pellet is resuspended in Watson buffer to give approx. 400,000±50,000 platelets/[…]. • 3. Watson buffer:
134 mM NaCl, 2.9 mM KCl, 12 mM NaHCO3, 0.34 mM Na2HPO4.2H2O, 1 mM MgCl2.6H2O, 5 mM Glucose and 5 mM HEPES in MQ H2O. The pH is adjusted to 7.4 with 1 M NaOH. • 4. Prostaglandin I2 (Sigma, P6188 powder):
The PGI2 stock solution of 1 mg/mL in 1 M KOH is stored in aliquots of 100 μL at −20° C. Immediately before use, a solution of 5 μg/mL in ice-cold 0.9% NaCl in MQ H2O is prepared. • 5. Human Fibrinogen (Kordia/ERL, art nr: FIB 2 powder):
0.5 g fibrinogen powder is dissolved in 50 mL MQ H2O under vacuum. This stock solution is stored in aliquots of 1 mL at −20° C. Before use, a solution of 0.5 mg/mL in saline is prepared.
Before use, a solution of 50 μM TRAP in 0.9% NaCl in MQ H2O is prepared. For each test, a fresh solution is made.
• 1. Sysmex cell counter model KX-21 • 2. Labsystems iEMS reader MF with a 405 nm filter, an orbital shaker set at 1,000 rpm and a constant temperature of 37° C. Absorptions are measured with the Labsystems iEMS program. • 3. Blood collection system 600 mL with needle, art nr P4203 (NPBI) • 4. 96 wells micro plates (Greiner Labortechnik) flat-bottom
Procedure: The WPL concentration is counted in a Sysmex blood cell counter and the suspension is diluted with Watson buffer to obtain a concentration of 400,000±50,000 plt/μL. Before use, WPL is allowed to stabilize at room temperature for at least 20 min but not longer than 3-4 hours.
TRAP-induced aggregation: 150 μL WPL is pipetted into a well of a micro plate. 15 μL test compound or vehicle and 15 μL fibrinogen solution is added and the micro plate is placed in the micro plate reader at 37° C. Then, the optical density (OD) is measured at 405 nm and after shaking for 2 min in the reader, the OD405 is measured again to verify the stability of the platelets (absence of spontaneous platelet aggregation). 20 μL of 50 μM TRAP is added and the OD405 is kinetically measured every min for 14 min at 405 nm. Between two measurements, the plate is shaking for 40 seconds at 1,000 rpm (FIG. 1). For determination of the IC50 of a test compound, each test compound is investigated in at least 2 experiments using WPL from different volunteers.
Evaluation of response: The mean OD of each concentration (including vehicle) is calculated at t=0 min and t=10 min. The percentage inhibition at each concentration is calculated using the formula: […]

Setting [3] is: 5 μM ADP, human PRP, mean of n experiments, entries marked b measured with a Chronolog aggregometer, others with micro plate reader, read-out: Inhibition of ADP-induced (5 μM) human platelet aggregation (IC50), mean.
The mark [4] stands for this setting: 5 μM TRAP, washed human platelets, mean of n experiments, entries marked b measured with a Chronolog aggregometer, others with micro plate reader, read-out: Inhibition of TRAP (5 μM)-induced human platelet aggregation (IC50), mean.

Read-outs that look alike come from different tables or passages of the source.

Turning to `CC(C)(C)OC(=O)COCCOCCOCCOCCNC(=O)[C@H](CC(=O)O)NC(=O)[C@@H]1CCCN(C(=O)CCC2CCNCC2)C1` [Compound VII, tert-Butyl N-{[N-3-(4-piperidinepropionyl)-(R)-(−)-nipecotyl]-L-aspartyl}-15-aza-3,6,9,12-tetraoxa-pentadecanoate], the values for the IC50 in experiment [1] (setting [3]) and in experiment [2] (setting [4]) were 0.38 µM and 0.27 µM, respectively.

With `CC(C)(C)OC(=O)COCCOCCOCCOCCNC(=O)[C@H](Cc1ccccc1)NC(=O)[C@H](CC(=O)O)NC(=O)CCC(=O)Nc1ccc(C(=N)N)cc1` [Compound IV, tert-Butyl N-{(4-benzamidino)-succinamyl}-L-aspartyl-L-phenylalanyl-15-aza-3,6,9,12-tetraoxa-pentadecanoate], the IC50 in experiment [1] (setting [3]) came to 0.35 µM; in experiment [2] (setting [4]), 0.12 µM.

For `N=C(N)c1ccc(NC(=O)CCC(=O)N[C@@H](CC(=O)O)C(=O)O)cc1` [XVIII, reference compound], the IC50 was found to be 2.01 µM in experiment [1] (setting [3]) and 1.19 µM in experiment [2] (setting [4]).

On to `CCCCS(=O)(=O)N[C@@H](Cc1ccc(OCCCCC2CCNCC2)cc1)C(=O)O` [tirofiban, reference compound], for which the IC50 in experiment [1] (Homo sapiens, read-out: IC50, inhibition of human platelet aggregation induced by 5 μM ADP (reference compound)) fell in the range of 0.03 to 0.06 µM; in experiment [2] (Homo sapiens, read-out: IC50, inhibition of human platelet aggregation induced by 5 μM TRAP (reference compound)), 0.03 to 0.06 µM.

For `CC(C)(C)OC(=O)COCCOCCOCCOCCNC(=O)[C@H](Cc1ccccc1)NC(=O)[C@H](CC(=O)O)NC(=O)CCNC(=O)c1ccc(C(=N)N)cc1` [Compound I, tert-Butyl({N-(4-amidinobenzoyl)-β-alanyl}-L-aspartyl-L-phenylalanyl)-15-aza-3,6,9,12-tetraoxa-pentadecanoate], the IC50 in experiment [1] (setting [3]) stood at 0.61 µM; in experiment [2] (setting [4]), 0.22 µM.

With `O=C(O)C[C@H](NC(=O)[C@@H]1CCCN(C(=O)CCC2CCNCC2)C1)C(=O)O` [Compound VI, {N-3-[4-piperidinepropionyl]-(R)-(−)-nipecotyl}-L-aspartate], the values for the IC50 in experiment [1] (setting [3]) and in experiment [2] (setting [4]) were 22.6 µM and 6.29 µM, respectively.

Regarding `O=C(O)CCNC(=O)[C@@H]1CCCN(C(=O)CCC2CCNCC2)C1` [XX, reference compound], the IC50 in experiment [1] (setting [3]) turned out to be 0.31 µM; in experiment [2] (setting [4]), 0.38 µM.

For the molecule `CC(C)(C)OC(=O)COCCOCCOCCOCCNC(=O)[C@H](Cc1ccccc1)NC(=O)[C@H](CC(=O)O)NC(=O)[C@@H]1CCCN(C(=O)CCC2CCNCC2)C1` [IX, tert-Butyl N-{[N-3-(4-piperidinepropionyl)-(R)-(−)-nipecotyl]-L-aspartyl-L-phenylalanyl}-15-aza-3,6,9,12-tetraoxa-pentadecanoate], the IC50 in experiment [1] (setting [3]) was found to be 1.18 µM.

Take `CC(C)(C)OC(=O)COCCOCCOCCOCCNC(=O)[C@H](CC(=O)O)NC(=O)CCC(=O)Nc1ccc(C(=N)N)cc1` [III, tert-Butyl N-{(4-benzamidino)-succinamyl}-L-aspartyl-15-aza-3,6,9,12-tetraoxa-pentadecanoate]: the IC50 in experiment [1] (setting [3]) came to 0.38 µM; in experiment [2] (setting [4]), 0.25 µM.

What is called IC50 is the point on the concentration scale where inhibition reaches its midpoint.
